# Bridge positions count the residues as written; N and C are the ends. Peptide text beside a SMILES is read from it.
# Key:
# ACA-6501 [1] = assay: Competitive binding peptide ACA ELISA, cardiolipin/β2-GPI-coated plates; parameters: species or system human; details: peptide 1 mg/mL, affinity purified antibody
# Method in brief: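 Monomeric peptides at several amounts were preincubated ~1 h at RT with ACA-6501 serum (final 1:400), then added to cardiolipin-coated, fish-gelatin-blocked plates with β2-GPI for 1 h at RT. Bound IgG was detected with alkaline phosphatase anti-human IgG and phenolphthalein monophosphate, read at 550 nm. IC50 was the peptide amount at half-maximal absorbance.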
# ACA antibodies = assay: Competitive binding peptide ACA ELISA, cardiolipin/β2-GPI-coated plates, panel of ACA antibodies (average); parameters: species or system human; details: peptide 1 mg/mL, average over nine antibodies
# Description: A variation of this assay uses microtitration plates coated with human β2-glycoprotein I/cardiolipin (β2-GPI/CL) instead of tetravalent peptide and tests the ability of monomeric peptides to block the binding of aPL antibody to the epitope(s) on β2-GPI/CL. In this assay, IgG-depleted human serum at an optimized concentration is used as a source of β2-GPI. The monomeric peptides at several concentrations are incubated with an optimized concentration of aPL antibody in a manner analogous to the assay which employs tetravalent peptide as a plate substrate. Following the incubation of aPL/peptide in (β2-GPI/CL) plates, antibody binding and the peptide concentration required for 50% inhibition is determined at half-maximal absorbance as in the tetravalent assay.
# Peptide sequences for all five peptides immediately follow the table. All were tested using the competitive binding peptide ACA ELISA using CL/β2-GPI plates as described herein.
# As noted in Section I above, one synthetic peptide, 6641/3G3 was tested against several high titer ACA antisera. This peptide appeared to be crossreactive with the vast majority of ACA antisera tested as illustrated in FIG. 14.
# (B) Immulon I® 96-well, flat-bottom, polystyrene microtitration plates (Dynatech Laboratories, Inc., Chantilly, Va.) were coated with 30 μL/well of cardiolipin (CL, 50 μg; Sigma Chemical Co., St. Louis, Mo.) in ethanol. Two control wells received 30 μL ethanol only. After overnight evaporation at 4° C., each well was blocked with 200 μL of 5% (w/v) fish gelatin in PBS for 2 hours at RT.
# The CL/β2-GPI microtitration plate was washed 5 times with TBS and 100 μL aliquots in duplicate from Eppendorf tubes #1, 2, 3, and 4 containing the antibody-peptide (or no peptide mixtures) were added to the wells. A volume of 100 μL from tube #4 was added to the duplicate control wells containing no cardiolipin. The microtitration plate was incubated for 1 hour at RT with agitation at 40 rpm in an orbital shaker (American Scientific, Rotator V), washed 5 times with TBS and then 100 μL of 1:1000 goat anti-human IgG alkaline phosphatase conjugate (Zymed, Cat No. 62-8422) in 0.5% (w/v) BSA-TBS was added. Following incubation for 1 hour at RT, the microtitration plate was again washed 5 times with TBS and the colorimetric enzyme detection developed by adding 100 μL of PMPP solution (7.8 g phenolphthalein monophosphate plus 69.5 g of 2-amino-2-methyl-1-propanol in 100 mL water stock solution diluted 1:26 with water). After 21 minutes, the reaction was stopped by adding 50 μL of 0.2 M Na2HPO4 (Mallinckrodt) to each well. Absorbance at 550 nm was read in a microplate reader (Bio-Tek Instruments, Model EL 311). The amount of peptide that inhibited ACA-6501 binding by 50%, the IC50, was calculated from the graph at the intersection of half-maximal absorbance with amount of peptide added.
# ACA-6501 [2] = assay: Phage-ELISA; type: binding, human; details: phage clones coated on wells, affACA-6501 2.5 μg/mL
# Description: This method of selecting phage requires very tight binding of the insert to the screening antibody. Phage are directly coated onto wells of a microtitration plate and incubated with the screening antibody. Following washes to remove unbound antibody, an anti-human IgG alkaline phosphatase conjugate is added to bind any aPL antibodies bound to the phage. APL antibodies are then detected by adding a calorimetric substrate to the well which will react with alkaline phosphatase according to methods well known in the art.
# Three mL cultures were prepared from 35 clones previously isolated with affinity purified ACA-6501 in several phage library screens as well as one fUSE 2 phage clone lacking a peptide insert which was used as a control. After centrifugation for 3 minutes at 17,000×g, 100 μL from each phage supernatant (adjusted to −2×10^11 particles/mL, based on absorbance) was added to microtitration plate wells (Falcon, Becton-Dickinson Labware, Lincoln Park, N.Y.) and allowed to incubate overnight at 4° C. Following four washes with TBS 7.4, the plate was blocked with 125 μL of 0.5% BSA/TBS for 1 hour at RT. After another four TBS washes, 100 μL of affACA-6501 previously diluted to 2.5 μg/mL in TBS/BSA was added to each well and allowed to incubate 1 hour at 37° C. Following an additional four washes, 100 μL anti-human IgG diluted 1:1000 in TBS/0.5% Tween was added to each well. After 1 hour at RT, enzyme substrate was added and the incubation allowed to proceed for 2 hours. Following the addition of 50 μL 0.2 M Na2HPO4 to stop the reaction, absorbance was measured at 550 nm in the automated plate absorbance reader. […] The sequences for these clones are showvn in Table 2.
smiles,measurement,setting,value
"CC(C)C[C@@H]1NC(=O)[C@H](CC(C)C)NC(=O)[C@H](CC(C)C)NC(=O)[C@@H](NC(=O)[C@@H]2CCCN2C(=O)CNC(=O)[C@H](C)N)CSSC[C@@H](C(=O)N2CCC[C@H]2C(=O)NCC(=O)O)NC(=O)[C@H](CCCNC(=N)N)NC(=O)[C@H](CC(=O)O)NC(=O)[C@@H]2CCCN2C(=O)[C@H](C)NC1=O [3B10, AGPCLLLAPDRCPG] (H-AGPCLLLAPDRCPG-OH; disulfide 4-12)","Percent Inhibition of AffACA by Peptide Monomers, 6501",ACA-6501 [1],60%
same,"Percent Inhibition of AffACA by Peptide Monomers, Ave.",ACA antibodies,65%
same,signal in the phage-ELISA,ACA-6501 [2],significant signals

# Source: patent US20040009904A1, “APL immunoreactive peptides, conjugates thereof and methods of treatment for aPL antibody-mediated pathologies” (priority 1995, published 2004)
